Laboratory results published in US6008352A, “1-(isoquinolin-1-yl)-4-(1-phenylmethyl) piperazines; dopamine receptor subtype specific ligands” (Neurogen Corporation, priority 1998, dated 1999).

Assays:
D4 receptor = D4 receptor binding assay (3H-YM 09151-2 displacement); parameters: species or system African Green monkey; conditions: 0.5 nM 3H-YM 09151-2; nonspecific binding with 1 mM spiperone
Procedure: (§1) 1. Assay For D2 And D4 Receptor Binding Activity
(§2) Pellets of COS cells containing recombinantly produced D2 or D4 receptors from African Green monkey are used for the assays. The sample is homogenized in 100 volumes (w/vol) of 0.05 M Tris HCl buffer at 4° C. and pH 7.4. The sample is then centrifuged at 30,000×g and resuspended and rehomogenized. The sample is again centrifuged as described above and the final tissue sample is frozen until use. The tissue is resuspended 1:20 (wt/vol) in 0.05 M Tris HCl buffer containing 100 mM NaCl.
(§3) Incubations are carried out at […] and contain 0.4 ml of tissue sample, 0.5 nM ^3 H-YM 09151-2 and the compound of interest in a total incubation of 1.0 ml. Nonspecific binding is defined as that binding found in the presence of 1 mM spiperone; without further additions, nonspecific binding is less than 20% of total binding. Binding characteristics for representative examples of this invention for the D2 and D4 receptor subtypes are shown in Table 2 below for rat striatal homogenates. The binding characteristics of compounds of Formula I for the D4 receptor, expressed in nM, generally range from about 0.5 nanomolar (nM) to about 25 nanomolar (nM). These compounds typically have binding constants for the D2 receptor of from about 200 nM to more than 1000 nM.

D2 receptor = target: T1, D2 receptor (Chlorocebus aethiops, UniProt P52702); assay: D2 receptor binding assay (3H-YM 09151-2 displacement); parameters: species or system African Green monkey; conditions: 0.5 nM 3H-YM 09151-2; nonspecific binding with 1 mM spiperone
T1 construct: expressed in transfected cells; host or cells: COS cells
T1 sequence (P52702 whole entry): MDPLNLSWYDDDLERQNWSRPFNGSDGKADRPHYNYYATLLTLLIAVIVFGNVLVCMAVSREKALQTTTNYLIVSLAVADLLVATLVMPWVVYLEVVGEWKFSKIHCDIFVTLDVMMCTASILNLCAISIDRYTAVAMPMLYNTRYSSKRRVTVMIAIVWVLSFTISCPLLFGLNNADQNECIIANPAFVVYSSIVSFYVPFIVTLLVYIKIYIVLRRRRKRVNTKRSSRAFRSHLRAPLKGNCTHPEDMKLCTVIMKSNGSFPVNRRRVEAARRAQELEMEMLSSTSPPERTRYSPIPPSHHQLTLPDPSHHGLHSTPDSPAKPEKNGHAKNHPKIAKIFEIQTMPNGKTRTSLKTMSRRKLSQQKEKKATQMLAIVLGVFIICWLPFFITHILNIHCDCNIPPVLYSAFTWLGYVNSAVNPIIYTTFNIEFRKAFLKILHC
Procedure: as §1, §2, §3

Question: Which results are given for `Fc1ccc(CN2CCN(c3nccc4ccccc34)CC2)cc1F` [Compound 2]?
Answer: Ki (D4 receptor): 13 nM; Ki (D2 receptor): 1000 nM

Question: With `Clc1ccc(CN2CCN(c3nccc4ccccc34)CC2)cc1` [Compound 1] as the molecule, how does the Ki (D4 receptor) read?
Answer: The Ki was 5 nM.

Question: And the Ki (D2 receptor)?
Answer: The Ki was 556 nM.

Question: Which results are given for `Cc1ccc(CN2CCN(c3nccc4ccccc34)CC2)cc1` [Compound 6]?
Answer: Ki (D4 receptor): 9 nM; Ki (D2 receptor): 220 nM

Question: `c1ccc2c(N3CCN(Cc4ccc5c(c4)OCO5)CC3)nccc2c1` [Compound 4] was tested. Which Ki (D4 receptor) did it give?
Answer: The Ki was 19 nM.
